Reference: ChEMBL document CHEMBL1201862, “PubChem BioAssay data set” (2004)
The source made the active and inactive calls.

Assays:
[1] = target: Glucose-6-phosphate 1-dehydrogenase (Homo sapiens, UniProt P11413); assay: human G6PD enzyme inhibitors, dose response, selectivity assay for P. falciparum G6PD inhibitor project, biochemical, fluorescence (AID 504792); type: functional
Genome polyprotein = Genome polyprotein (dengue virus type 2, UniProt P29990); assay: Dengue-2 NS5 methyltransferase inhibitors, primary screen, biochemical, confirmation dose response (AID 588689); type: functional
Vero = assay: cells; type: functional; details: Chlorocebus sabaeus
Fatty acid synthase [2] = target: T1, Fatty acid synthase (Homo sapiens, UniProt P49327); assay: FAS thioesterase domain inhibitors, dose response, biochemical, endpoint fluorescence intensity, uHTS hits (AID 624327); type: functional;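 further: fluorescence from hydrolysis of an O-methyl fluorescein acyl ester substrate by the enzyme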
Fatty acid synthase [3] = target: T1, Fatty acid synthase; assay: FAS thioesterase domain inhibitors, dose response, biochemical, kinetic fluorescence intensity (AID 624326); type: functional;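 further: rate of fluorescence rise from hydrolysis of a fluorogenic O-methyl fluorescein ester substrate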
[4] = target: T2, High affinity choline transporter 1 (Homo sapiens, UniProt Q9GZV3); assay: CHT inhibitors, dose response, cell-based, 5-point CRC, membrane potential dye (AID 504840); type: functional
T2 sequence (Q9GZV3 whole entry): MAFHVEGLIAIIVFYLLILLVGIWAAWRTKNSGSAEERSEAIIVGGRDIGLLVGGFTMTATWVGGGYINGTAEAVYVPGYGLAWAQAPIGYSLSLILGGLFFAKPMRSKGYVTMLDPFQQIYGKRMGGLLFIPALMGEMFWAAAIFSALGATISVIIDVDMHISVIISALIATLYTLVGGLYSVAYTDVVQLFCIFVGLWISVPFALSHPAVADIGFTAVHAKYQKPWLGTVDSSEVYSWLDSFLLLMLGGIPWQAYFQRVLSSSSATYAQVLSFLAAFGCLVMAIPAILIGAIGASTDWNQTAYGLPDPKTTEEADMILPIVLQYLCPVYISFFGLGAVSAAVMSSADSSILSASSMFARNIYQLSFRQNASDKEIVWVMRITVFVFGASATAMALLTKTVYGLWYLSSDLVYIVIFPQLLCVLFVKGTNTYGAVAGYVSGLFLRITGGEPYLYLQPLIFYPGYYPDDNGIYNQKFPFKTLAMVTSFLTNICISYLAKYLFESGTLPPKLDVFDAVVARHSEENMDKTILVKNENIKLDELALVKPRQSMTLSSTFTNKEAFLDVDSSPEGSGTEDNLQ

[5] = cytotoxicity in HEK-293T cells, dose response, cytotoxicity control for BCR NF-kB inhibitor project, luminescence, B-cell screen hits (AID 489021); type: functional, cell-based;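 further: HEK-293T cells carrying an NF-kB luciferase reporter; cells exposed to compound for about 14 hours before viability readout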
[6] = target: T3, Carboxy-terminal domain RNA polymerase II polypeptide A small phosphatase 1 (Homo sapiens, UniProt Q9GZU7); assay: inhibitors of CTDSP1, concentration-response testing, biochemical assay, absorbance-based, actives from ultra-high-throughput screening (AID 540297); type: functional
T3 sequence (Q9GZU7 whole entry): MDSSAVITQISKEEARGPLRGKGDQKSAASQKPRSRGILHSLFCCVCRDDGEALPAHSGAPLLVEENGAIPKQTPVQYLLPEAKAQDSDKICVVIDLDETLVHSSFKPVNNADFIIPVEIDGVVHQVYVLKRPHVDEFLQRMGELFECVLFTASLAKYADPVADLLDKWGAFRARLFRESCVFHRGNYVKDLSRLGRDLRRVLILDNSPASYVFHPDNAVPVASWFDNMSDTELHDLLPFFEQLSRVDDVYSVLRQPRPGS

CAAX prenyl protease 2 = target: T4, CAAX prenyl protease 2 (Saccharomyces cerevisiae S288c, UniProt Q03530); type: biochemical
T4 sequence (Q03530 whole entry): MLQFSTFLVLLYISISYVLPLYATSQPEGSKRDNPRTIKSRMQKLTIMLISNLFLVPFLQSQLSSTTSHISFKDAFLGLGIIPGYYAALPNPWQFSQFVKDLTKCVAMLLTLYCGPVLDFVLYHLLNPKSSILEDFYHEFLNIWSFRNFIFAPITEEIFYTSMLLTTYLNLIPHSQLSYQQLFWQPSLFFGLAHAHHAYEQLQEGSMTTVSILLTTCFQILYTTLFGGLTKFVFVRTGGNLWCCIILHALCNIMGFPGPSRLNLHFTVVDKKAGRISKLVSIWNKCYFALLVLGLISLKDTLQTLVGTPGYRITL

BJ [7] = assay: cells; type: functional, cell-based; details: Homo sapiens
BJ [8] = assay: cytotoxicity toward BJ-TERT-LT-ST fibroblasts, dose response, cell-based, RAS-independent, luminescence (AID 1935); type: functional; details: Homo sapiens;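 further: BJ fibroblasts immortalized with TERT plus LT and ST oncogenes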
[9] = cytotoxicity toward DRD oncogenic fibroblasts, dose response, cell-based, non-viral oncogenic, luminescence (AID 1934); type: functional; details: Homo sapiens
BJ [10] = assay: cytotoxicity toward BJ-TERT fibroblasts, dose response, cell-based, RAS-independent, luminescence (AID 1933); type: functional; details: Homo sapiens
[11] = Luminescence Cell-Based Dose Retest to Confirm Inhibitors of Cancer Stem Cells. [Related pubchem assays (depositor defined):AID2717, AID2721]; type: functional; details: Homo sapiens
[12] = target: T5, Apoptotic protease-activating factor 1 (Homo sapiens, UniProt O14727); type: functional
T5 sequence (O14727 whole entry): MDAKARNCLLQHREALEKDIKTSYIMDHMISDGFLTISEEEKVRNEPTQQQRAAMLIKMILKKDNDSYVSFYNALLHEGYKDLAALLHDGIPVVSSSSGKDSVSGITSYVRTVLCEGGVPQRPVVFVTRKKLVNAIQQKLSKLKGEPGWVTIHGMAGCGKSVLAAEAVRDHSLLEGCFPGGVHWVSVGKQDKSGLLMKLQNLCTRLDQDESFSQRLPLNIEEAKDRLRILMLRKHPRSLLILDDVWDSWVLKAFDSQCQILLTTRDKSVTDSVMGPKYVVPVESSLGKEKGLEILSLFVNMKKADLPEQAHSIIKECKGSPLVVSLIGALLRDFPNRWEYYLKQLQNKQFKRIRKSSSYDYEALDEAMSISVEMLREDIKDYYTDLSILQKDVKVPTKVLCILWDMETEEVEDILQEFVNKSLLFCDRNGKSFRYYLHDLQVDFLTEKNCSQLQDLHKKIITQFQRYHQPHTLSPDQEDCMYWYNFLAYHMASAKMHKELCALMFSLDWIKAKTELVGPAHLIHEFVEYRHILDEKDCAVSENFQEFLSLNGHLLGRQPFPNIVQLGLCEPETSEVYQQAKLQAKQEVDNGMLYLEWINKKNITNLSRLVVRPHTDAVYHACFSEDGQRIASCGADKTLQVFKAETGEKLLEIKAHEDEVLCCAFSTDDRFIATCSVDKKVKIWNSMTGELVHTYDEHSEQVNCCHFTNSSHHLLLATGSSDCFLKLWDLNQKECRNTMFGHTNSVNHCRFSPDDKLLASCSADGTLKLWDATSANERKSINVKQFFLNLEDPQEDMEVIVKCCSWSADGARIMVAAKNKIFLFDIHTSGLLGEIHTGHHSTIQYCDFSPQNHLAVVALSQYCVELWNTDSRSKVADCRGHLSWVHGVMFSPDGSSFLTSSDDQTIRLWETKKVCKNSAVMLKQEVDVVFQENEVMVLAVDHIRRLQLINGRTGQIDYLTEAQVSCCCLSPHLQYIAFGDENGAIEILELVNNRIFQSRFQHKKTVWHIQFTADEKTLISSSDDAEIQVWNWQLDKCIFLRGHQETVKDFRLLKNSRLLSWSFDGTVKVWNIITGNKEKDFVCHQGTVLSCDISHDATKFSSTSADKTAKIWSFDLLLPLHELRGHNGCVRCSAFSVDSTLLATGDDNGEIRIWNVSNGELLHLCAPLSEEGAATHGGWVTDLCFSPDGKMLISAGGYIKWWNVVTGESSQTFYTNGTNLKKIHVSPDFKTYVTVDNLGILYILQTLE

[13] = target: T6, Replicative DNA helicase DnaB (Mycobacterium tuberculosis, UniProt P9WMR3); assay: DnaB intein splicing inhibitors, dose response, biochemical, cell-free fluorescence (AID 449749); type: functional
T6 sequence (P9WMR3 whole entry): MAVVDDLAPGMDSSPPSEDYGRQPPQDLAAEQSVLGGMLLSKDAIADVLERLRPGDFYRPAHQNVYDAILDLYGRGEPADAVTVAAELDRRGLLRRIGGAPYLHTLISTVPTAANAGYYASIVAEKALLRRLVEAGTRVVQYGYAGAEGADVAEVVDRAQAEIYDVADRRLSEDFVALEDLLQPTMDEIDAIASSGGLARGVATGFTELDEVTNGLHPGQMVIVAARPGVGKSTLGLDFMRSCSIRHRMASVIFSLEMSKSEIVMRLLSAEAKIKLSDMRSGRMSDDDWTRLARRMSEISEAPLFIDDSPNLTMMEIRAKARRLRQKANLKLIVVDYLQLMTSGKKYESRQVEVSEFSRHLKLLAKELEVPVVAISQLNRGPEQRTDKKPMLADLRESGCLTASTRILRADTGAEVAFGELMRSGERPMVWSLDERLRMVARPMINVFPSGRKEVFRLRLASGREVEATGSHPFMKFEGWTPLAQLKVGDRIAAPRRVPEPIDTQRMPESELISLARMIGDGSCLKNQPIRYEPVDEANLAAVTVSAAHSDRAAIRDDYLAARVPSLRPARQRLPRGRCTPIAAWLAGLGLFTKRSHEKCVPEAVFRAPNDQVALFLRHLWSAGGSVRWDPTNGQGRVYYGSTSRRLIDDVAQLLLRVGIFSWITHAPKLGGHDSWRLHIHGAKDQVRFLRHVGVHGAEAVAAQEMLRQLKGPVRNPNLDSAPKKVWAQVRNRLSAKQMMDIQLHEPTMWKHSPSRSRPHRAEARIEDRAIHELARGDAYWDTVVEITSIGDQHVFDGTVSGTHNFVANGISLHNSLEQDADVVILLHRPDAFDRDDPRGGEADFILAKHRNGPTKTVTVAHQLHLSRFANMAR

Protein RecA = target: T7, Protein RecA (Mycobacterium tuberculosis, UniProt P9WHJ3); assay: Fluorescence Cell-Free Homogeneous Dose Retest to Identify Inhibitors of RecA-Intein Splicing Activity. [Related pubchem assays (depositor defined):AID2097, AID2223, AID489010, AID492950]; type: functional
T7 sequence (P9WHJ3 whole entry): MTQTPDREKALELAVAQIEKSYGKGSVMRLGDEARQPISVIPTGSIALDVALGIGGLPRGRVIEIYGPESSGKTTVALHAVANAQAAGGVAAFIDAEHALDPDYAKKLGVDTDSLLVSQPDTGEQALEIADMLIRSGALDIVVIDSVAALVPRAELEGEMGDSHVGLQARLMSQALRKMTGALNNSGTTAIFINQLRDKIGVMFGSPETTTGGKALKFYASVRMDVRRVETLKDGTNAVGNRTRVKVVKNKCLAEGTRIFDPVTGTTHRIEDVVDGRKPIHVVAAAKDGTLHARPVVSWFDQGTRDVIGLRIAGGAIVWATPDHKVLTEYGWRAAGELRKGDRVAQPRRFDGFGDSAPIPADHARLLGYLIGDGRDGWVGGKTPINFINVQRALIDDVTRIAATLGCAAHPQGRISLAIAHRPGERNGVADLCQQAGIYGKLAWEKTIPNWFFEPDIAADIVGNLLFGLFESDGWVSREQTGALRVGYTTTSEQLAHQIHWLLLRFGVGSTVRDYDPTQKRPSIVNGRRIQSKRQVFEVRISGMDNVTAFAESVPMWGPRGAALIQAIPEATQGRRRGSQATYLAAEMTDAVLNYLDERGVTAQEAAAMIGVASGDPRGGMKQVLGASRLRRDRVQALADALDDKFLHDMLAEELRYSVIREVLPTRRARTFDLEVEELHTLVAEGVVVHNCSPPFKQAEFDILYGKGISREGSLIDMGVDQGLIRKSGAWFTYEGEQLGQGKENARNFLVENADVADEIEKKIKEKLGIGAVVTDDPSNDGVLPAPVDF

T1 sequence (P49327 whole entry, the tested form may be a part): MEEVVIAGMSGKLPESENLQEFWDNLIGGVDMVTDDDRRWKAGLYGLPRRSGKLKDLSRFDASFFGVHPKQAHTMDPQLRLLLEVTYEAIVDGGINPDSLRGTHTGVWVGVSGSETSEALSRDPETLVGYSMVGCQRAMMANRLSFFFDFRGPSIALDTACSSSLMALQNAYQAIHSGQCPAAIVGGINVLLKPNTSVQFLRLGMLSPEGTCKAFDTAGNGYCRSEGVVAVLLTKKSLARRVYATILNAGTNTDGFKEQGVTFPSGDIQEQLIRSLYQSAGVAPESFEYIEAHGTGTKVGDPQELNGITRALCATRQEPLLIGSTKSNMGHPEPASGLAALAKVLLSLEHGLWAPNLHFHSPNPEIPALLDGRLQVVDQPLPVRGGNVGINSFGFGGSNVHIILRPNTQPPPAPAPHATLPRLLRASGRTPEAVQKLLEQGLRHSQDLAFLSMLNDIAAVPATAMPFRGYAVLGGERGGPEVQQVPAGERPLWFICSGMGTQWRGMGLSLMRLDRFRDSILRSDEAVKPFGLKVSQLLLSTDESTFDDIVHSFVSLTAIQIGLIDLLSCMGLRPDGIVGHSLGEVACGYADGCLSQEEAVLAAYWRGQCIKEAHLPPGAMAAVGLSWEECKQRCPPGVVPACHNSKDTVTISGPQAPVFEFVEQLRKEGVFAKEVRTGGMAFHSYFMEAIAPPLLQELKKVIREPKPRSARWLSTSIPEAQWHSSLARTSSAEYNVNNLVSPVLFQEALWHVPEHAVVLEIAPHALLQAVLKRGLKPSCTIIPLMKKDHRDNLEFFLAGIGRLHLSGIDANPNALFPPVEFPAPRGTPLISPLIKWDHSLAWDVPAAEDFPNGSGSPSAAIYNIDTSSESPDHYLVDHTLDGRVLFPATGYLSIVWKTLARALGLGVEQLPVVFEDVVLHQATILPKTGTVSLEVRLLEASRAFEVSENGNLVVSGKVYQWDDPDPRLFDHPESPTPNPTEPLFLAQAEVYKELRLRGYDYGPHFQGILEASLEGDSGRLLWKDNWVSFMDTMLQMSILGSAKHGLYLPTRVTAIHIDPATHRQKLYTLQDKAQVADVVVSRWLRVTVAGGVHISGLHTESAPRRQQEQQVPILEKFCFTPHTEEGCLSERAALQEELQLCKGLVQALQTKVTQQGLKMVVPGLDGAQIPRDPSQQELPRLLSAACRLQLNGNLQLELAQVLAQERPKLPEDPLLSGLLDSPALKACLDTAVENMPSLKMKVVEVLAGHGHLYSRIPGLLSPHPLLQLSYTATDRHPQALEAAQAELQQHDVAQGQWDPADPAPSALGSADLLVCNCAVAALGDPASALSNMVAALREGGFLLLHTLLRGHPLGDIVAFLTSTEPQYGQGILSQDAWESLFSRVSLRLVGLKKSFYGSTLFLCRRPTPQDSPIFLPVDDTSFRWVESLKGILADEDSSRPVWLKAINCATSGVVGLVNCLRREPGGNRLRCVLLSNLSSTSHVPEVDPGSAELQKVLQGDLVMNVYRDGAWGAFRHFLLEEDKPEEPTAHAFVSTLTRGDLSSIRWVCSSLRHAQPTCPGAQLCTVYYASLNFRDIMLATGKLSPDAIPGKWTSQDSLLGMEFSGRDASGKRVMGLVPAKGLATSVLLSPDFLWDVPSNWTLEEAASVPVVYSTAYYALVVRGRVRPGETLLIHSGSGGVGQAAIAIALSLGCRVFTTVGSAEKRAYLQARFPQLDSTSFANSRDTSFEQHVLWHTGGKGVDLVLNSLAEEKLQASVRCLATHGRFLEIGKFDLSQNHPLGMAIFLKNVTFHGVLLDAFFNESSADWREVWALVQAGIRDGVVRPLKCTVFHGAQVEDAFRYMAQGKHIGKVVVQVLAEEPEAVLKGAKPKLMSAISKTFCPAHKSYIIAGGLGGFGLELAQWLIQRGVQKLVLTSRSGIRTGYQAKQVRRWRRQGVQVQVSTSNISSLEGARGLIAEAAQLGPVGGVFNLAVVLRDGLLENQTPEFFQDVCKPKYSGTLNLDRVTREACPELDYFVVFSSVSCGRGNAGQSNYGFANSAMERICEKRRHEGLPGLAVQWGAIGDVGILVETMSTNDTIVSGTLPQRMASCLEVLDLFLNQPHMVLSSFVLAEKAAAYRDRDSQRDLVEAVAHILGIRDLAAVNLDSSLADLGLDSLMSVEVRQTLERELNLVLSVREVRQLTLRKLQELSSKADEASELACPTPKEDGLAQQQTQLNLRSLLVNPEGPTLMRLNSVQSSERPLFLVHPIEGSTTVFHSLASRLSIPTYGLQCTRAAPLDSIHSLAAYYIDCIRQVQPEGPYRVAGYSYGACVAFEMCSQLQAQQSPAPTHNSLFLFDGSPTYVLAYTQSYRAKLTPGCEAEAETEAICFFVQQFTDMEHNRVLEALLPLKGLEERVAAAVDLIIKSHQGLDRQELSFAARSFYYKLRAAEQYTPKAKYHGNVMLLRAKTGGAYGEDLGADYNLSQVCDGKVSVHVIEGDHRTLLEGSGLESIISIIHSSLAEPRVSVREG
Sequence of Glucose-6-phosphate 1-dehydrogenase (P11413 whole entry): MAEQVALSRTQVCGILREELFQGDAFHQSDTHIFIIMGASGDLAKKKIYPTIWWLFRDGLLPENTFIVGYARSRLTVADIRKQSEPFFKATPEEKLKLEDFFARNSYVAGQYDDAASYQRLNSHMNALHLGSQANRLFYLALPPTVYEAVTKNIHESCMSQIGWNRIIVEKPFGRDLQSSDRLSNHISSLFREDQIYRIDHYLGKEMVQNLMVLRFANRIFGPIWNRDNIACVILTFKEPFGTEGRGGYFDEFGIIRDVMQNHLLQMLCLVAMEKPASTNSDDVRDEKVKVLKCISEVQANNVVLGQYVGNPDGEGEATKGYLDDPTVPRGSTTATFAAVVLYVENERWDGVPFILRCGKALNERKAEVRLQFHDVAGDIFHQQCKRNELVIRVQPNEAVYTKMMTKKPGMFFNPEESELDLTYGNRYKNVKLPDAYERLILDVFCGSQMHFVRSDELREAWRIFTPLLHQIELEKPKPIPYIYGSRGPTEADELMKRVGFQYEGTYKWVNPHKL
Sequence of Genome polyprotein (P29990 2492-3391 limits assumed): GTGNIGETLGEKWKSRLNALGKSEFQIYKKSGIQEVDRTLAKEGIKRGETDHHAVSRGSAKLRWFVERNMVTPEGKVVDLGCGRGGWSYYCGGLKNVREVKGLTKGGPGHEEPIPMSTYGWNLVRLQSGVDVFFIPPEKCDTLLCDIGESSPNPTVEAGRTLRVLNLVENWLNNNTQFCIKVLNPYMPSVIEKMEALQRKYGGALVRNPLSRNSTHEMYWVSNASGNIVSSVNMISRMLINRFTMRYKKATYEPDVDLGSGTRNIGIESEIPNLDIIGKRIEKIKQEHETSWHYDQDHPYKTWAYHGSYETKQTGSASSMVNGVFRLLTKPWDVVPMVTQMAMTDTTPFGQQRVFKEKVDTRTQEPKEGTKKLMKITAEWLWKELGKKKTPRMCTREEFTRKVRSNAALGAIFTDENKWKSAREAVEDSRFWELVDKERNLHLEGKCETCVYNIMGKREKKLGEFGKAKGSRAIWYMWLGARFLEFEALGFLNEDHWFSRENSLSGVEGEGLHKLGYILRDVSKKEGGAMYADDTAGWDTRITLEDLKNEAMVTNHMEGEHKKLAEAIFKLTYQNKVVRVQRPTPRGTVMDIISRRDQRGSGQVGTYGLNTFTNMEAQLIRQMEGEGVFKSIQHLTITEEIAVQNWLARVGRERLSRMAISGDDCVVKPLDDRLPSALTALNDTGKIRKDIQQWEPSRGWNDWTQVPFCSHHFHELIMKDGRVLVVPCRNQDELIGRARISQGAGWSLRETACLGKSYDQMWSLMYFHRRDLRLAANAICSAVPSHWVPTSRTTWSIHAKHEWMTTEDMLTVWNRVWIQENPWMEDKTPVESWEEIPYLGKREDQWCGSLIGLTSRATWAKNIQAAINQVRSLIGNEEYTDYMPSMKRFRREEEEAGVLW

O=C(O)C(Cc1ccccc1)N1C(=O)C=CC1=O (stereo not drawn)
IC50 [1]: > 80 µM (inactive)
IC50 (Genome polyprotein): > 100 µM (active)

CCCCCCN1C[C@@H](n2cc(COC(=O)c3ccccc3)nn2)[C@H](O)C[C@@H]1c1ccc(C)cc1
CC50 (Vero): > 25 µM (active)

O=C(/C=C/c1cc([N+](=O)[O-])ccc1OC(F)F)Nc1cccc2ccccc12
IC50 (Fatty acid synthase [2]): 24.6 µM (inactive)
IC50 (Fatty acid synthase [3]): 61.9 µM (inactive)

Fc1ccc(-c2nc3c(-c4ccccc4)cnn3cc2CCN2CCOCC2)cc1
IC50 [4]: 13.2 µM (active)

CCOC(=O)c1c(-c2ccc(C)cc2C)csc1NC(=O)CSc1nnnn1C
CC50 (Vero): 23.2 µM (active)

C[C@H](CO)N1C[C@H](C)[C@@H](CN(C)C(=O)NC2CCCCC2)Oc2c(NC(=O)Nc3ccccc3)cccc2C1=O
IC50 (Fatty acid synthase [2]): 4.16 µM (active)
IC50 (Fatty acid synthase [3]): 3.04 µM (active)

CCn1c(=O)c2cc(C(=O)NC(C)C)sc2c2ccccc21
IC50 [5]: 27.6 µM (inactive)

CCCCc1ccc(NC(S)=NCC2CCCO2)cc1 (stereo not drawn)
IC50 [4]: 15.8 µM (active)

CCOc1ccc(/C=C2\SC(=S)N(CCC(=O)Nc3ccc(C(=O)O)cc3)C2=O)cc1
IC50 [6]: 1.88 µM (active)
IC50 [5]: > 80 µM (inactive)

CN1CCN(C(=O)c2ccc(-c3cccs3)s2)CC1
AC50 (CAAX prenyl protease 2): 32.5 µM (active)

CCOc1cc2nc(-c3ccc(OC)c(OC)c3)nc(N3CCOCC3)c2cc1OC
IC50 [5]: > 80 µM (inactive)

CCN(Cc1ccccc1)S(=O)(=O)c1ccc(C(=O)N(CCCN(C)C)c2nc3ccc(F)cc3s2)cc1
CC50 (Vero): > 25 µM (active)

C#CCN(Cc1ccccc1)S(=O)(=O)C=C
IC50 [5]: > 80 µM (inactive)

COc1ccc(/C=N/n2cnc3c4cc(F)ccc4nc-3c2O)cc1CN1CCCC1
EC50 (BJ [7]): 9.17 µM (inconclusive)
EC50 (BJ [8]): 4.92 µM (active)
EC50 [9]: 5.47 µM (inconclusive)
EC50 (BJ [10]): 5.03 µM (inconclusive)

CC(C)N1CCN(Cc2ccc(OCc3ccccc3)cc2)CC1CCO (stereo not drawn)
AC50 (CAAX prenyl protease 2): 72.9 µM (active)
AC50 [11]: 3.36 µM (active)

CC(=O)N(C1=C(N)C(=O)c2ccccc2C1=O)c1ccccc1
IC50 [12]: 10.4 µM (active)
AC50 [13]: 3.46 µM (active)
EC50 (Protein RecA): 2.18 µM (active)

Sc1nc2c[nH]c(S)nc-2n1
IC50 [1]: > 80 µM (inactive)

Cc1cc(C)c(S(=O)(=O)/N=C2\C=C(NS(=O)(=O)c3ccccc3)C(=O)c3ccccc32)c(C)c1
IC50 [12]: 31.1 µM (active)
